Data: patent US20220187282A1, “CARDIOMYOCYTE PROLIFERATION” (The Council of the Queensland Institute of Medical Research, priority 2019, published 2022)
Where two headings read alike, the source gives them in different places.

How the values were obtained:
Assay type in all cases: biochemical
kinases [1] = biological target: kinases (Homo sapiens, UniProt Q8TDX7); settings: NEK7 FRET-Z-Lyte SP; Test Conc(μM):ATP Conc(μM) 1:50
kinases [2] = biological target: T1, kinases (Homo sapiens, UniProt O15530)
T1 sequence (O15530 1-556): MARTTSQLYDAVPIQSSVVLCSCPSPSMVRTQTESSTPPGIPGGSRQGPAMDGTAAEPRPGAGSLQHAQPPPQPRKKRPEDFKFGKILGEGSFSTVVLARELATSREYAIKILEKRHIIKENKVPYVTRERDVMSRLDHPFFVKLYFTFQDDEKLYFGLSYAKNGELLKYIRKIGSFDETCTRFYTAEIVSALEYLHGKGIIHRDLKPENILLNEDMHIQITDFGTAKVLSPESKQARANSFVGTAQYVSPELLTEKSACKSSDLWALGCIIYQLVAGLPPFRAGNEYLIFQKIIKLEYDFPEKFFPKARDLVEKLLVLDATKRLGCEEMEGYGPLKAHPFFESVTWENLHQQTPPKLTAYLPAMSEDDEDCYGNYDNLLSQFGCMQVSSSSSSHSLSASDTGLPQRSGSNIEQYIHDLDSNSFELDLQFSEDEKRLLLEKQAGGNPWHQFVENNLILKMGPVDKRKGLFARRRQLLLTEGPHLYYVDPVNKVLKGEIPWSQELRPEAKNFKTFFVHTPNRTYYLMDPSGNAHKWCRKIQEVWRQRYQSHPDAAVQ

kinases [3] = biological target: kinases (Homo sapiens, UniProt Q9NQU5); settings: PAK6 FRET-Z-Lyte SP; Test Conc(μM):ATP Conc(μM) 1:10
Chain of kinases (Homo sapiens, UniProt Q9NQU5) (Q9NQU5 whole entry): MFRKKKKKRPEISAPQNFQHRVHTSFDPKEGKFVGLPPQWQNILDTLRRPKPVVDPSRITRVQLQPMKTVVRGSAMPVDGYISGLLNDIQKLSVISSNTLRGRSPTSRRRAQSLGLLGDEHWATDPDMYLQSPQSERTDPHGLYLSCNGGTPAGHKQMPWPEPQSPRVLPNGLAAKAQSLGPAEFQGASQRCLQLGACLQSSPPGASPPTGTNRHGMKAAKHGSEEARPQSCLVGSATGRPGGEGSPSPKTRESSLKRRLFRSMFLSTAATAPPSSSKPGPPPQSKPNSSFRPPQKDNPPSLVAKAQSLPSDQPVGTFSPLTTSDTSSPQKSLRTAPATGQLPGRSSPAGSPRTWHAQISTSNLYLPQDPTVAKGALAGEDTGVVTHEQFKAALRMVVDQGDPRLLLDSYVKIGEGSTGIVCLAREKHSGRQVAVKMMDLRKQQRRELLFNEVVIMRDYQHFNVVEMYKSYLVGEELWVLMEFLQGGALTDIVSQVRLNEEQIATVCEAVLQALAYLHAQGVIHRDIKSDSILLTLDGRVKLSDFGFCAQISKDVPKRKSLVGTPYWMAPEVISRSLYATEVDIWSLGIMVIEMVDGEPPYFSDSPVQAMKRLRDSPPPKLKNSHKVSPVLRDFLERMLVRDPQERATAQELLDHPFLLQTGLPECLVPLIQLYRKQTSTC

kinases [4] = biological target: kinases (Homo sapiens, UniProt P42338)
Chain of kinases (Homo sapiens, UniProt P42338) (P42338 whole entry): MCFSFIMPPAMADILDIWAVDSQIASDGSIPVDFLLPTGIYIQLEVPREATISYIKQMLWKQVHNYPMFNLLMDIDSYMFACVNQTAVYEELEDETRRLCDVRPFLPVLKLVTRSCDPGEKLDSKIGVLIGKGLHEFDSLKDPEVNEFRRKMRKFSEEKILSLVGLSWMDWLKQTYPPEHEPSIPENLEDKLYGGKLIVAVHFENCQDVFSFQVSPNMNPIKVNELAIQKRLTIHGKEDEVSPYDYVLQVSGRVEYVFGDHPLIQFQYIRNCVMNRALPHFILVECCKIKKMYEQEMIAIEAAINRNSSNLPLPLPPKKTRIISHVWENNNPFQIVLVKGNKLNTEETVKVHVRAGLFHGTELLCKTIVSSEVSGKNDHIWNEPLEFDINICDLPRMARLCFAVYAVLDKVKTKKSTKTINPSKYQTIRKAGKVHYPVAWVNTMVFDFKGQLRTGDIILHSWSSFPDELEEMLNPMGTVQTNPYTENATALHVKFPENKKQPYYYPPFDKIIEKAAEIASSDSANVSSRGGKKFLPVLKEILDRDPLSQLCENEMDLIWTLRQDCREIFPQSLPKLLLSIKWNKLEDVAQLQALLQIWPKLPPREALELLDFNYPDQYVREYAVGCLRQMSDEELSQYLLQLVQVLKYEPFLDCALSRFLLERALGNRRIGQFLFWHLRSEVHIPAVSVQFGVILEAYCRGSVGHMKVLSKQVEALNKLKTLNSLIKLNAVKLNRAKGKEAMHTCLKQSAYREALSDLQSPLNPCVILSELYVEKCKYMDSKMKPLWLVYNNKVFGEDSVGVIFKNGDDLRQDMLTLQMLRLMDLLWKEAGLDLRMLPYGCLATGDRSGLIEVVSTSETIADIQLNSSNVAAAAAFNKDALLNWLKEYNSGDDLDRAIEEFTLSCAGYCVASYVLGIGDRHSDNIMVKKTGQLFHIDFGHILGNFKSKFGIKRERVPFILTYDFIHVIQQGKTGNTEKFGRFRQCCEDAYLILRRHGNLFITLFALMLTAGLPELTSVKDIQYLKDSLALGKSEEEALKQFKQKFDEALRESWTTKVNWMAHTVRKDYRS

kinases [5] = biological target: kinases (Homo sapiens, UniProt Q9NYL2); settings: ZAK FRET-Lantha SP; Test Conc(μM) 1
kinases [6] = biological target: kinases (Homo sapiens, UniProt P07947); settings: YES1 FRET-Z-Lyte SP; Test Conc(μM):ATP Conc(μM) 1:25
kinases [7] = biological target: kinases (Homo sapiens, UniProt P36897); settings: TGFBR1 (ALK5) FRET-Lantha SP; Test Conc(μM) 1
kinases [8] = biological target: T2, kinases (Homo sapiens, UniProt P52564)
T2 sequence (P52564 1-334): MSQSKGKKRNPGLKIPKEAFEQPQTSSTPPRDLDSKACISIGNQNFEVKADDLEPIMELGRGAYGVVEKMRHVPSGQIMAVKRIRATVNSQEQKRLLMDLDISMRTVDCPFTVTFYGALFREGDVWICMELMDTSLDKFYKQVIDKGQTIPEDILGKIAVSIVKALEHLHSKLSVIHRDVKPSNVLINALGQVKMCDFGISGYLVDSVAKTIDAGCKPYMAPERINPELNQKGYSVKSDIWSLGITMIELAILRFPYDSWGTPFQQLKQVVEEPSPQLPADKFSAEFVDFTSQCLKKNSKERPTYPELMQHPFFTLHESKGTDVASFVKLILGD

kinases [9] = biological target: kinases (Homo sapiens, UniProt Q5VT25); settings: CDC42 BPA (MRCKA) Z-Lyte SP; Test Conc(μM):ATP Conc(μM) 1:5
kinases [10] = biological target: kinases (Homo sapiens, UniProt Q52WX2); settings: SBK1 FRET-Z-Lyte SP; Test Conc(μM):ATP Conc(μM) 1:5
Chain of kinases (Homo sapiens, UniProt Q52WX2) (Q52WX2 whole entry): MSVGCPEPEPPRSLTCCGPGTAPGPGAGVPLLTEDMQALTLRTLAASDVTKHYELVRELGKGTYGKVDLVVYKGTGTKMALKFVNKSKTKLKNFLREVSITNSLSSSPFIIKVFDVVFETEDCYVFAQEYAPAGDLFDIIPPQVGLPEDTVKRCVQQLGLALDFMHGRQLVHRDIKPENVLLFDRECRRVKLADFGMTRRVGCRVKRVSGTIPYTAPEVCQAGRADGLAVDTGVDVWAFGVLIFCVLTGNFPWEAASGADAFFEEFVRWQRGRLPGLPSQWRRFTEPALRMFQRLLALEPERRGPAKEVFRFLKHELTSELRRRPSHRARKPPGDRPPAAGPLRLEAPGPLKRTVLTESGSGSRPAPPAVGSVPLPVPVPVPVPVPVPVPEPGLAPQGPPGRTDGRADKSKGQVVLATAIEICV

kinases [11] = biological target: kinases (Homo sapiens, UniProt Q16539)
Chain of kinases (Homo sapiens, UniProt Q16539) (Q16539 whole entry): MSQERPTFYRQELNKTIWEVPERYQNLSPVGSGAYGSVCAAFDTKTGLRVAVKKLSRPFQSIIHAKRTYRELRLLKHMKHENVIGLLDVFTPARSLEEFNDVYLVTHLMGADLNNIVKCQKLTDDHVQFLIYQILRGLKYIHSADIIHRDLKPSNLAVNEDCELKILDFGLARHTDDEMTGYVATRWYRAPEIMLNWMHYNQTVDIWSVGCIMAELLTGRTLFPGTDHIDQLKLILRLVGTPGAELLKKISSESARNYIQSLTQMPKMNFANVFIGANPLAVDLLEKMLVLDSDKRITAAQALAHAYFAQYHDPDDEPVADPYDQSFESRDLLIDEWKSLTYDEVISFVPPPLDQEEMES

kinases [12] = biological target: kinases (Homo sapiens, UniProt Q9UQB9); settings: AURKC (Aurora C) Z-Lyte SP; Test Conc(μM):ATP Conc(μM) 1:25
kinases [13] = biological target: kinases (Homo sapiens, UniProt Q9NYA1); settings: SPHK1 FRET-Adapta SP; Test Conc(μM):ATP Conc(μM) 1:10
Chain of kinases (Homo sapiens, UniProt Q9NYA1) (Q9NYA1 whole entry): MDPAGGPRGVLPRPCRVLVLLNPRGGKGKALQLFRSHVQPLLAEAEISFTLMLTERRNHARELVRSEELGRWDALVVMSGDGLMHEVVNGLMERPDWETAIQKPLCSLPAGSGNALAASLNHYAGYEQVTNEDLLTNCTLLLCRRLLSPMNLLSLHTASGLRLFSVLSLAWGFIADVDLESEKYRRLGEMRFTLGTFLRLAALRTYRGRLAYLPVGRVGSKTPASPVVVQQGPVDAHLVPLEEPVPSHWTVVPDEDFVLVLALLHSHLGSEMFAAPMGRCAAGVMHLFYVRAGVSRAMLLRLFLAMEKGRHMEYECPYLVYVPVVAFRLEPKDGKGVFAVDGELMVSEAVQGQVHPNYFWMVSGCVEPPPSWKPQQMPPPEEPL

kinases [14] = biological target: kinases (Homo sapiens, UniProt P57058); settings: HUNK FRET-Lantha SP; Test Conc(μM) 1
Chain of kinases (Homo sapiens, UniProt P57058) (P57058 whole entry): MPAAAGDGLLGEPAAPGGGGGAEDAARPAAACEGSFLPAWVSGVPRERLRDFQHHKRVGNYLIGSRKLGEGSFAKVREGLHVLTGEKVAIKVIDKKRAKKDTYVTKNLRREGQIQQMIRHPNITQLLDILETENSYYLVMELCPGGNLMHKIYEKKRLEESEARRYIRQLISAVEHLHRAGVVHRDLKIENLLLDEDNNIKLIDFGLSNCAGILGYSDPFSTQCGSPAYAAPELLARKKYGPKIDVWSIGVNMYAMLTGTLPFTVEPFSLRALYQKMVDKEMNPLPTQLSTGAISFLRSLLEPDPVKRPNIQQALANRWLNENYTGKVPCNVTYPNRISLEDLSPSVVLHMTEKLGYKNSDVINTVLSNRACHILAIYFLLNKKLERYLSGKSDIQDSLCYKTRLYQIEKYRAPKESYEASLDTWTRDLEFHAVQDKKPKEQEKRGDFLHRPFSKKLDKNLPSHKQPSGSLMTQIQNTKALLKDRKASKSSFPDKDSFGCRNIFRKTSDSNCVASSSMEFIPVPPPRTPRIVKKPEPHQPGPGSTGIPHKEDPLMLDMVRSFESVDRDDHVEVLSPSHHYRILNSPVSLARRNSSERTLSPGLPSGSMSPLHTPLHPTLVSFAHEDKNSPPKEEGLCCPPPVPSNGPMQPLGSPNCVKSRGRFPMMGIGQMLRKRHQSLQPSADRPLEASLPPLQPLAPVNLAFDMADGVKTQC

kinases [15] = biological target: kinases (Homo sapiens, UniProt Q02750)
Chain of kinases (Homo sapiens, UniProt Q02750) (Q02750 whole entry): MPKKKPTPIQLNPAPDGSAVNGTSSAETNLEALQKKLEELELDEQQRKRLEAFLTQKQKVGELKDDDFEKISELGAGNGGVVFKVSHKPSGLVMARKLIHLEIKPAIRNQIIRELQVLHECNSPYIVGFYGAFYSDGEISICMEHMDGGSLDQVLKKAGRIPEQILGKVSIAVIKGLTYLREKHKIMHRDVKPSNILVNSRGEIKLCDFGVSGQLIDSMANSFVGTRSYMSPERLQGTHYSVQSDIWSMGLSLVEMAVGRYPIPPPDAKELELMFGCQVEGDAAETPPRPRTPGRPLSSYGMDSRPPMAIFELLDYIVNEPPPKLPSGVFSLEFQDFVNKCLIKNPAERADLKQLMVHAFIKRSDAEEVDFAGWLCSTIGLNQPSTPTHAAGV

kinases [16] = biological target: kinases (Homo sapiens, UniProt Q15569); settings: TESK1 FRET-Lantha SP; Test Conc(μM) 1
kinases [17] = biological target: kinases (Homo sapiens, UniProt P49674); settings: CSNK1E (CK1 epsilon) Z-Lyte SP; Test Conc(μM):ATP Conc(μM) 1:5
Chain of kinases (Homo sapiens, UniProt P49674) (P49674 whole entry): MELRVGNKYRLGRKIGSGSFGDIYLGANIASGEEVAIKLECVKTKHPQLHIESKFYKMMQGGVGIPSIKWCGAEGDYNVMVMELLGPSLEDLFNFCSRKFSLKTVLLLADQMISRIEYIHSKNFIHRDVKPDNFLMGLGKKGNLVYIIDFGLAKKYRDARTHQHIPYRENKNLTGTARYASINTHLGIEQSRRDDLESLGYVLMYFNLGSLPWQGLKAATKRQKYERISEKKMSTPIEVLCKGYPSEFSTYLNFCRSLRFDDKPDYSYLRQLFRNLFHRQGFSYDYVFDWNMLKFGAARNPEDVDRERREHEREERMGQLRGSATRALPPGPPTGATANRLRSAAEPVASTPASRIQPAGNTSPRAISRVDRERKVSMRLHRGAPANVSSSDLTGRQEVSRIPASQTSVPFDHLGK

kinases [18] = biological target: kinases (Homo sapiens, UniProt Q8IY84); settings: NIM1K FRET-Z-Lyte SP; Test Conc(μM):ATP Conc(μM) 1:10
kinases [19] = biological target: kinases (Homo sapiens, UniProt Q8N752); settings: CSNK1A1L FRET-Z-Lyte SP; Test Conc(μM):ATP Conc(μM) 1:5
kinases [20] = biological target: kinases (Homo sapiens, UniProt P06493)
Chain of kinases (Homo sapiens, UniProt P06493) (P06493 whole entry): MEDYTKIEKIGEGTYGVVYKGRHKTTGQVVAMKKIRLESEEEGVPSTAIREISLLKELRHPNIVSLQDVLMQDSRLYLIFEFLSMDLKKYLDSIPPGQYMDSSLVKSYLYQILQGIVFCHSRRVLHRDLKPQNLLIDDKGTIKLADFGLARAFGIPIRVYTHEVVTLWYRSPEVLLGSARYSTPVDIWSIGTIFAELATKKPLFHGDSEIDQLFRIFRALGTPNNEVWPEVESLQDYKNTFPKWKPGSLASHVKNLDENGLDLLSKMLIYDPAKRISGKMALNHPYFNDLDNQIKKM

[21] = PDK1 (Direct) FRET-Z-lyte SP, Test Conc(μM):ATP Conc(μM) 1:25
[22] = PDK1 Cascade FRET-Z-Lyte SP, Test Conc(μM):ATP Conc(μM) 1:100
[23] = PIK3CB FRET-Adapta SP, Test Conc(μM):ATP Conc(μM) 1:150
[24] = PIK3CB/PIK3R2 FRET-Adapta SP, Test Conc(μM):ATP Conc(μM) 1:10
[25] = MAP2K6 (MKK6) FRET-Lantha SP, Test Conc(μM) 1
[26] = MAP2K6 (MKK6)Cascade Z-Lyte SP, Test Conc(μM):ATP Conc(μM) 1:100
[27] = MAPK14 (p38a) Direct Z-Lyte SP, Test Conc(μM):ATP Conc(μM) 1:500
[28] = MAPK14 (p38a)Cascade Z-Lyte SP, Test Conc(μM):ATP Conc(μM) 1:100
[29] = MAP2K1 (MEK1) FRET-Lantha SP, Test Conc(μM) 1
[30] = MAP2K1 (MEK1)Cascade Z-Lyte SP, Test Conc(μM):ATP Conc(μM) 1:100
[31] = CDK1/cyclin A2 FRET-Lantha SP, Test Conc(μM) 1
[32] = CDK1/cyclin B FRET-Z-Lyte SP, Test Conc(μM):ATP Conc(μM) 1:25

Compound | Mean Inhib (%) (kinases [1]) | Mean Inhib (%) (kinases [2]; [21]) | Mean Inhib (%) (kinases [2]; [22]) | Mean Inhib (%) (kinases [3]) | Mean Inhib (%) (kinases [4]; [23]) | Mean Inhib (%) (kinases [4]; [24]) | Mean Inhib (%) (kinases [5]) | Mean Inhib (%) (kinases [6]) | Mean Inhib (%) (kinases [7]) | Mean Inhib (%) (kinases [8]; [25]) | Mean Inhib (%) (kinases [8]; [26]) | Mean Inhib (%) (kinases [9]) | Mean Inhib (%) (kinases [10]) | Mean Inhib (%) (kinases [11]; [27]) | Mean Inhib (%) (kinases [11]; [28]) | Mean Inhib (%) (kinases [12]) | Mean Inhib (%) (kinases [13]) | Mean Inhib (%) (kinases [14]) | Mean Inhib (%) (kinases [15]; [29]) | Mean Inhib (%) (kinases [15]; [30]) | further results
Cc1ccc(NC(=O)c2ccnc(N3CCOCC3)c2)cc1Nc1ccnc(N2CC(C)OC(C)C2)n1 (stereo not shown) [compound 3] | 7.4 | 0.4 | 3.7 | 15.9 | −5.2 | 8.0 | 3.1 | 5.8 | 5.3 | −4.9 | 21.3 | −2.0 | 3.3 | 79.8 | 59.0 | 9.3 | 8.0 | 5.7 | −3.2 | 20.0 | Mean Inhib (%) (kinases [16]): −2.5%; Mean Inhib (%) (kinases [17]): 5.8%; Mean Inhib (%) (kinases [18]): −0.9%; Mean Inhib (%) (kinases [19]): 2.0%; Mean Inhib (%) (kinases [20]; [31]): −1.0%; Mean Inhib (%) (kinases [20]; [32]): 3.8%
Cc1cc(Oc2ccnc(Nc3ccc(S(N)(=O)=O)cc3)c2)c(-c2ccccn2)nc1C [compound 65] | 6.9 | 6.9 | 9.4 | 16.2 | −2.3 | −4.7 | 78.3 | 56.6 | 99.6 | 2.3 | −5.7 | −2.0 | −6.2 | 19.9 | 13.5 | 4.2 | −0.7 | 11.5 | −0.5 | 17.3 | Mean Inhib (%) (kinases [16]): 15.5%; Mean Inhib (%) (kinases [17]): 2.8%; Mean Inhib (%) (kinases [18]): −0.4%; Mean Inhib (%) (kinases [19]): 0.5%; Mean Inhib (%) (kinases [20]; [31]): 25.4%; Mean Inhib (%) (kinases [20]; [32]): 3.2%
